Key:
[1] = test system: squamous cell carcinoma (SCC); conditions: Harris et al. 2005; cited from earlier work
[2] = palmitic acid in yoghurt; Nadathur et al. 1996; cited from earlier work
[3] = test system: tk locus of L5178Y mouse lymphoma cells; format: cell-based; conditions: 10 μg/ml
Description: The MLA assay evaluates the mutagenic potential of the tested oils based on quantitation of forward mutations at the tk locus of L5178Y in mouse lymphoma cells. The mutagenicity of the test agents is indicated by the increase in the number of mutants after treatment. The tk enzyme is responsible for incorporating exogenous thymidine via a salvage pathway, into the cell in the form of thymidine monophosphate. Analogues of thymidine, such as trifluorothymidine (TFT) can also be phosphorylated by tk enzyme, which leads to cell toxicity. Forward mutation at this locus results in a loss of tk activity and subsequent resistance to TFT, which is used as the selective agent to kill wild type cells. Thus the tk mutants are not killed by TFT and are able to survive due to their ability to synthesize […] de novo.
The objective of the MLA assay was to study the inhibitory effect of Fat blend 6 (Table 2) on the incidence of mammalian cell gene mutations. Each group of L5178Y cells was incubated with one of the tested oils, i.e. with Fat blend 6 or with oil containing low palmitic acid (LPO), and the incidence of specific mutations was examined using the MLA assay. The study experiments were performed with a constant concentration of reference mutagen. Additionally, several concentrations of the test items were used. Positive and negative controls were included in the experiment.
Study procedure: 1×10^7 cells/culture (80 cm^2 flasks) were exposed to several concentrations of tested oil in the presence of the mutagen (10 μg/ml MMS) in parallel to the negative and positive controls (Table 6, FIG. 2). Cells were incubated with the tested oil and mutagen for 3-4 hours to induce and increase the efficiency of anti-mutagenesis effect. Following the incubation, the mutagen was removed by centrifugation (400 g, 5 min) and the cells were washed twice. Subsequently the cells were re-suspended in growth medium for an expression period of 4 days. Following expression period, cultures were seeded in selective medium (containing TFT). Cells from each experimental group were seeded in four 96-well plates at a density of 2000 cells/well in selective medium. After an incubation period of 11 days at 37±1° C., 5±0.5% CO2 and 95±5% humidified atmosphere, the number of colony containing/empty wells was scored using microscope. The colonies size and/or morphology were also characterized. The inhibitory effect of the 2 tested oils was evaluated using the following criteria: (a) a decrease of Mutation Frequencies in the presence of tested oil related to the positive control. (b) Decreased occurrence of small colonies (slow growth colonies) indicated by a high large/small colonies ratio was an indication for inhibitory potential clastogenic effects and/or chromosomal aberrations.
The study was conducted based on the Ninth Addendum to OECD Guidelines for Testing of Chemicals, Section 4, No. 476, “In Vitro Mammalian Cell Gene Mutation Test”, adapted 21 Jul. 1997. This type of study was used in Whittaker P, Evaluation of commercial kava extracts and kavalactone standards for mutagenicity and toxicity using the mammalian cell gene mutation assay in L5178Y mouse lymphoma cells, Food Chem. Toxicol. 2007.

Row | Structure (SMILES) | association of increasing dietary proportions with squamous cell carcinoma [1] | anti-MNNG activity [2] | % change in mutants compare to MMS treat [3] [%] | Colony Sizing Large/small [3] | Mutants/10^6 cells [3] [per 10^6 cells] | Mutation factor [3] | relative suspension growth (RSG) [3] [%]
1 | CCCCCCCCCCCCCCCC(=O)O [palmitic acid] | associated with reduced squamous cell carcinoma (SCC) | exerts anti-N-methyl-N′-nitro-N-nitrosoguanidine (MNNG) activity | – | – | – | – | –
2 | CCCCCC/C=C\CCCCCCCC(=O)O [palmitoleic acid] | associated with reduced squamous cell carcinoma (SCC) | – | – | – | – | – | –
3 | COS(C)(=O)=O [MMS, methyl methane sulfonate] | – | – | 100 | 1.53 | 489 | 12 | 65.8

Source: patent publication US20090131523A1, “Lipid compositions for the treatment and prevention of proliferative diseases and for the reduction of incidences of mutagenesis and carinogenesis” (Enzymotec Ltd., priority 2007, published 2009)
